# Reference: patent US5783178A, “Polymer linked biological agents” (Supratek Pharma. Inc., priority 1994, dated 1998)
# Read-outs that look alike come from different tables or passages of the source.
# What was measured:
# SK cells = experiment: Activity of conjugated TNFα on SK cells (XTT); assay type: cell-based; details: 24 hours
# Sp2-resistant cell line = experiment: Cytotoxicity towards Sp2-resistant cells (XTT); assay type: cell-based, murine; details: Mus musculus, Example 7
# [1] = system: SKVLB cell line (SK-resistant cells); experiment: Cytotoxicity towards SK-resistant cells (XTT); assay type: cell-based
# MCF-7AU = experiment: Micellar agent delivery, cytotoxicity against MCF-7AU; assay type: cell-based; details: Homo sapiens
# Dox-MCF-7 = experiment: Micellar agent delivery, cytotoxicity against Dox-MCF-7; assay type: cell-based; details: Homo sapiens
# in vivo = details: mouse, ip
# [2] = system: Sp2-resistant myeloma cells; experiment: Tumor treatment, Sp2-resistant tumors; assay type: in vivo, female Balb C mice; details: i.v. at MTD
# Sp2 myeloma cell line = experiment: Tumor treatment, Sp2 tumors; assay type: in vivo, female Balb C mice; details: i.v. at MTD
# [3] = system: murine myeloma cell line Sp2/0 (Sp2); experiment: Cytotoxicity towards Sp2 cells (XTT); assay type: cell-based; details: Mus musculus, Example 7
# [4] = system: MCF-7 line of human breast cancer cells; experiment: Micellar agent delivery, cytotoxicity against MCF-7; assay type: cell-based; details: MCF7
# [5] = system: SKOV3 line of transformed cells (SK cells); experiment: Cytotoxicity towards SK cells (XTT); assay type: cell-based; details: Homo sapiens
# [6] = Solution stability in PBS (dissolved daunorubicin monitored by fluorescence); assay type: physicochemical; details: 37°, PBS pH 7.0, 0.2 μM
compound,measurement,setting,value
human tumor necrosis factorα [TNFα],"Inhibition, % (± SD)",SK cells; TNFα concentration 0.01 (unit not given),0%
same,"Inhibition, % (± SD)",SK cells; TNFα concentration 0.05 (unit not given),2 (± 2) %
same,"Inhibition, % (± SD)",SK cells; TNFα concentration 0.2 (unit not given),5 (± 3) %
same,"Inhibition, % (± SD)",SK cells; TNFα concentration 1.0 (unit not given),4 (± 4) %
same,"Inhibition, % (± SD)",SK cells; TNFα concentration 5 (unit not given),10 (± 5) %
same,"Inhibition, % (± SD)",SK cells; TNFα concentration 20 (unit not given),22 (± 5) %
same,"Inhibition, % (± SD)",SK cells; TNFα concentration 50 (unit not given),35 (± 7) %
same,"Inhibition, % (± SD)",SK cells; TNFα concentration 100 (unit not given),44 (± 6) %
same,"Inhibition, % (± SD)",SK cells; TNFα concentration 200 (unit not given),80 (± 14) %
"COc1cccc2c1C(=O)c1c(O)c3c(c(O)c1C2=O)C[C@@](O)(C(C)=O)C[C@@H]3O[C@H]1C[C@H](N)[C@H](O)[C@H](C)O1 [Free daunorubicin, daunorubicin]",IC50,Sp2-resistant cell line,2.6 µg/mL
same,IC50,"[1]; Example 5, 1 h exposure, 4 days culture, daunorubicin content basis",2.55 µg/mL
same,IC50,"[1]; Example 6, methods of Example 5",45 µg/mL
same,inhibition at 0.016 µg/mL,MCF-7AU,3%
same,inhibition at 0.08 µg/mL,MCF-7AU,9%
same,inhibition at 0.4 µg/mL,MCF-7AU,37%
same,inhibition at 2 µg/mL,MCF-7AU,65%
same,inhibition at 10 µg/mL,MCF-7AU,89%
same,inhibition at 50 µg/mL,MCF-7AU,100%
same,inhibition at 0.016 µg/mL,Dox-MCF-7,2%
same,inhibition at 0.08 µg/mL,Dox-MCF-7,7%
same,inhibition at 0.4 µg/mL,Dox-MCF-7,39%
same,inhibition at 2 µg/mL,Dox-MCF-7,62%
same,inhibition at 10 µg/mL,Dox-MCF-7,86%
same,inhibition at 50 µg/mL,Dox-MCF-7,100%
same,LD50 at 336 h,in vivo,7 mg/kg
same,MTD at 336 h,in vivo,5 mg/kg
same,V/V0,[2]; day 0 after first treatment,1
same,V/V0,[2]; day 3 after first treatment,2.7
same,V/V0,[2]; day 6 after first treatment,3.4
same,V/V0,[2]; day 8 after first treatment,5.1
same,V/V0,[2]; day 10 after first treatment,6.6
same,V/V0,[2]; day 13 after first treatment,11.6
same,V/V0,[2]; day 16 after first treatment,20.9
same,V/V0,[2]; day 20 after first treatment,25.9
same,V/V0,[2]; day 23 after first treatment,38.4
same,V/V0,[2]; day 27 after first treatment,50.9
same,V/V0,[2]; day 31 after first treatment,68.3
same,V/V0,[2]; day 34 after first treatment,73.0
same,V/V0,[2]; day 38 after first treatment,83.4
same,V/V0,[2]; day 42 after first treatment,113.8
same,V/V0,[2]; day 45 after first treatment,111.9
same,V/V0,Sp2 myeloma cell line; day 0 after first treatment,1
same,V/V0,Sp2 myeloma cell line; day 4 after first treatment,1.5
same,V/V0,Sp2 myeloma cell line; day 7 after first treatment,2.4
same,V/V0,Sp2 myeloma cell line; day 12 after first treatment,8.8
same,V/V0,Sp2 myeloma cell line; day 14 after first treatment,10.9
same,V/V0,Sp2 myeloma cell line; day 17 after first treatment,16.8
same,V/V0,Sp2 myeloma cell line; day 21 after first treatment,17.5
same,V/V0,Sp2 myeloma cell line; day 25 after first treatment,16.1
same,V/V0,Sp2 myeloma cell line; day 28 after first treatment,15.8
same,V/V0,Sp2 myeloma cell line; day 32 after first treatment,15.9
same,V/V0,Sp2 myeloma cell line; day 35 after first treatment,15.7
same,IC50,[3],0.22 µg/mL
same,inhibition at 0.016 µg/mL,[4],15%
same,inhibition at 0.08 µg/mL,[4],43%
same,inhibition at 0.4 µg/mL,[4],69%
same,inhibition at 2 µg/mL,[4],91%
same,inhibition at 10 µg/mL,[4],100%
same,inhibition at 50 µg/mL,[4],100%
same,IC50,"[5]; SK-OV-3, Example 5, 1 h exposure, 4 days culture, daunorubicin content basis, read-out: IC50",0.32 µg/mL
same,IC50,"[5]; SK-OV-3, Example 6, methods of Example 5",5.2 µg/mL
same,I585 (% of initial),[6]; 0 hours incubation,100 % of initial
same,"remaining at 6 h, 0.2 µM","[6]; 6 hours incubation, read-out: I585 (% of initial)",92%
same,"remaining at 27 h, 0.2 µM","[6]; 27 hours incubation, read-out: I585 (% of initial)",89%
same,"remaining at 43 h, 0.2 µM","[6]; 43 hours incubation, read-out: I585 (% of initial)",68%
same,"remaining at 78 h, 0.2 µM","[6]; 78 hours incubation, read-out: I585 (% of initial)",54%
same,"remaining at 120 h, 0.2 µM","[6]; 120 hours incubation, read-out: I585 (% of initial)",37%
